Where two headings read alike, the source gives them in different places.
What was measured:
hNPY2R = target: T1, hNPY2R (Homo sapiens, UniProt P49146); assay: hNPY2R CreLuc assay in 0.5% and 100% plasma (HEK-293 CRE-luciferase reporter cells); format: cell-based; conditions: HEK-293 reporter cells
T1 construct: expressed in transfected cells; host or cells: HEK-293 CRE-luciferase reporter cells
T1 sequence (P49146 1-381): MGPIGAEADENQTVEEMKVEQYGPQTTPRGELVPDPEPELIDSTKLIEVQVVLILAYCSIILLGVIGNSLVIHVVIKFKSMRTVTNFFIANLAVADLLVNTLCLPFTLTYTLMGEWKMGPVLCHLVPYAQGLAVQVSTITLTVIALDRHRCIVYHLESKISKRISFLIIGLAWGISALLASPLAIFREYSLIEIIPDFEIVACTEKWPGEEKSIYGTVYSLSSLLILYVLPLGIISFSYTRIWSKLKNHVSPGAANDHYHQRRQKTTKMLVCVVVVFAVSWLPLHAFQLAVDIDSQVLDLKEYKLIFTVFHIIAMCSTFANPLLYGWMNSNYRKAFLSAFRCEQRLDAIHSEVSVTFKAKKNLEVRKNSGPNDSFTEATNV

hGLP1R = target: T2, hGLP1R (Homo sapiens, UniProt P43220); assay: hGLP1R CreLuc assay in 0.5% and 100% plasma (HEK-293 CRE-luciferase reporter cells); format: cell-based; conditions: HEK-293 reporter cells
T2 construct: expressed in transfected cells; host or cells: HEK-293 CRE-luciferase reporter cells

hGIPR = target: T3, hGIPR (Homo sapiens, UniProt P48546); assay: hGIPR CreLuc assay in 0.5% and 100% plasma (CHO CRE-luciferase reporter cells); format: cell-based; conditions: 0.5% human plasma, read-out: hGIPR 0.5% hP
T3 construct: expressed in transfected cells; host or cells: CHO CRE-luciferase reporter cells
T3 sequence (P48546 22-466): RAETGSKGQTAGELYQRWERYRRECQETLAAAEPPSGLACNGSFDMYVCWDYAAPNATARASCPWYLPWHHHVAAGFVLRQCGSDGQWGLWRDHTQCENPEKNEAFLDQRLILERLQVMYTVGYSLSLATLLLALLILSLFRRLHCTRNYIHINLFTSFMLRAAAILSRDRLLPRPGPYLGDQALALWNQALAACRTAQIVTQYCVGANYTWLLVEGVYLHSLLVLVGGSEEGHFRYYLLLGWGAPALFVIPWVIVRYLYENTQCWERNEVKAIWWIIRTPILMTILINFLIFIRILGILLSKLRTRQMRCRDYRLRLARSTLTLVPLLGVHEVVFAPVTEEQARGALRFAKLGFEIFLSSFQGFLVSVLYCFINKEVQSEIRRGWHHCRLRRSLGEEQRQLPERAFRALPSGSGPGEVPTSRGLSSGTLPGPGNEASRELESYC

[1] = Solubility in 0.1 M phosphate buffer at pH 7; format: physicochemical; conditions: 0.1 M phosphate buffer at pH 7, 10 mg/mL final peptide concentration, shaking 2 hours at room temperature, peptides as TFA-salts; measured sample pH 6.5-7.0
[2] = 0.5% human plasma, read-out: hNPY2R 0.5% hP
[3] = 0.5% human plasma, read-out: hGLP1R 0.5% hP
[4] = 100% human plasma, read-out: hNPY2R 100% hP

T2 sequence (P43220 24-463): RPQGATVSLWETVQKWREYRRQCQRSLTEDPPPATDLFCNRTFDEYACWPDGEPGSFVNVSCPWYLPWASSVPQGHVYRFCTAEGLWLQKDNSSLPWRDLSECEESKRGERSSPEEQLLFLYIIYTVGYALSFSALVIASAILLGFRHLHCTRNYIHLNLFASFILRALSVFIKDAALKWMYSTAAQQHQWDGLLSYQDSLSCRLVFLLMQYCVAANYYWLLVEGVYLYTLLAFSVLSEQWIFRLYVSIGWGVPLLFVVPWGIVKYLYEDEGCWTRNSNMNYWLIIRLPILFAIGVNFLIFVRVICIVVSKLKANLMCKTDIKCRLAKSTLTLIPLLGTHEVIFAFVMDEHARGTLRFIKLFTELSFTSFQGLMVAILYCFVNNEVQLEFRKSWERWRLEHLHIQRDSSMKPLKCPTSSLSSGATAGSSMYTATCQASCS

Row | EC50 (hNPY2R; [2]) [nM] | EC50 (hGLP1R; [3]) [nM] | EC50 (hGIPR) [nM] | solubility at 2 h [1] [µg/mL] | EC50 (hNPY2R; [4]) [nM] | EC50 (hGLP1R; 100% human plasma, read-out: hGLP1R 100% hP) [nM] | SMILES
1 | 60.8 | 0.3 | 0.1 | 3800 | – | – | CC[C@H](C)[C@H](NC(=O)[C@H](CO)NC(=O)[C@H](Cc1ccc(O)cc1)NC(=O)[C@H](CC(=O)O)NC(=O)[C@H](CO)NC(=O)[C@@H](NC(=O)[C@H](Cc1ccccc1)NC(=O)[C@@H](NC(=O)CNC(=O)[C@H](CCC(=O)O)NC(=O)C(C)(C)NC(=O)[C@@H](N)Cc1ccc(O)cc1)[C@@H](C)O)[C@@H](C)O)C(=O)N[C@@H](CC(C)C)C(=O)N[C@@H](CC(C)C)C(=O)N[C@@H](CCC(=O)O)C(=O)N[C@@H](CCCCN)C(=O)N[C@@H](CCC(N)=O)C(=O)N[C@@H](C)C(=O)N[C@@H](CCC(N)=O)C(=O)NC(C)(C)C(=O)N[C@@H](C)C(=O)N[C@@H](Cc1ccccc1)C(=O)N[C@H](C(=O)N[C@@H](CCCNC(=N)N)C(=O)N[C@@H](Cc1c[nH]cn1)C(=O)N[C@@H](CC(C)C)C(=O)N[C@H](C(=O)N[C@@H](CC(N)=O)C(=O)N[C@@H](CCCCNC(=O)CC[C@H](NC(=O)CC[C@H](NC(=O)CC[C@H](NC(=O)CC[C@H](NC(=O)CC[C@H](NC(=O)CCCCCCCCCCCCCCCCC(=O)O)C(=O)O)C(=O)O)C(=O)O)C(=O)O)C(=O)O)C(=O)NC(C)(C)C(=O)N[C@H](C(=O)N[C@@H](CCCNC(=N)N)C(=O)N[C@@H](CCC(N)=O)C(=O)N[C@@H](CCCNC(=N)N)C(=O)N[C@@H](Cc1ccc(O)cc1)C(N)=O)[C@@H](C)O)[C@@H](C)CC)C(C)C [Compound 122, Y-Aib-E-G-T-F-T-S-D-Y-S-I-L-L-E-K-Q-A-Q-Aib-A-F-V-R-H-L-I-N-K(1,3)-Aib-T-R-Q-R-Y-NH2.C18DA-gGlu-gGlu-gGlu-gGlu-gGlu(1,2)]
2 | 17.5 | 2 | – | 9400 | – | – | CC[C@H](C)[C@H](NC(=O)[C@H](CC(C)C)NC(=O)[C@H](Cc1c[nH]cn1)NC(=O)[C@H](CCCNC(=N)N)NC(=O)[C@@H](NC(=O)[C@H](Cc1ccccc1)NC(=O)[C@H](C)NC(=O)C(C)(C)NC(=O)[C@H](CCC(=O)O)NC(=O)[C@H](C)NC(=O)[C@H](CCC(N)=O)NC(=O)[C@H](CCCCN)NC(=O)[C@H](CCC(=O)O)NC(=O)[C@H](CC(C)C)NC(=O)C(C)(C)NC(=O)[C@@H](NC(=O)[C@H](CO)NC(=O)[C@H](Cc1ccc(O)cc1)NC(=O)[C@H](CC(=O)O)NC(=O)[C@H](CO)NC(=O)[C@@H](NC(=O)[C@H](Cc1ccccc1)NC(=O)[C@@H](NC(=O)CNC(=O)[C@H](CCC(=O)O)NC(=O)C(C)(C)NC(=O)[C@@H](N)Cc1ccc(O)cc1)[C@@H](C)O)[C@@H](C)O)[C@@H](C)CC)C(C)C)C(=O)N[C@@H](CC(N)=O)C(=O)N[C@@H](CCCCNC(=O)[C@@H](N)CCCCNC(=O)CC[C@H](NC(=O)CC[C@H](NC(=O)CC[C@H](NC(=O)CC[C@H](NC(=O)CC[C@H](NC(=O)CC[C@H](NC(=O)CCCCCCCCCCCCCCCCCCC(=O)O)C(=O)O)C(=O)O)C(=O)O)C(=O)O)C(=O)O)C(=O)O)C(=O)NC(C)(C)C(=O)N[C@H](C(=O)N[C@@H](CCCNC(=N)N)C(=O)N[C@@H](CCC(N)=O)C(=O)N[C@@H](CCCNC(=N)N)C(=O)N[C@@H](Cc1ccc(O)cc1)C(N)=O)[C@@H](C)O [Compound 104, Y-Aib-E-G-T-F-T-S-D-Y-S-I-Aib-L-E-K-Q-A-E-Aib-A-F-V-R-H-L-I-N-K(1,3)-Aib-T-R-Q-R-Y-NH2.C20DA-gGlu-gGlu-gGlu-gGlu-gGlu-gGlu-eLys(1,2)]
3 | – | – | – | 9400 | 16.2 | 14.5 | CC[C@H](C)[C@H](NC(=O)[C@H](CC(C)C)NC(=O)[C@H](Cc1c[nH]cn1)NC(=O)[C@H](CCCNC(=N)N)NC(=O)[C@@H](NC(=O)[C@H](Cc1ccccc1)NC(=O)[C@H](C)NC(=O)C(C)(C)NC(=O)[C@H](CCC(N)=O)NC(=O)[C@H](C)NC(=O)[C@H](CCC(N)=O)NC(=O)[C@H](CCCCN)NC(=O)[C@H](CCC(=O)O)NC(=O)[C@H](CC(C)C)NC(=O)C(C)(C)NC(=O)[C@@H](NC(=O)[C@H](CO)NC(=O)[C@H](Cc1ccc(O)cc1)NC(=O)[C@H](CC(=O)O)NC(=O)[C@H](CO)NC(=O)[C@@H](NC(=O)[C@H](Cc1ccccc1)NC(=O)[C@H](C)NC(=O)CNC(=O)[C@H](CCC(=O)O)NC(=O)C(C)(C)NC(=O)[C@@H](N)Cc1ccc(O)cc1)[C@@H](C)O)[C@@H](C)CC)C(C)C)C(=O)N[C@@H](CC(N)=O)C(=O)N[C@@H](CCCCNC(=O)[C@@H](N)CCCCNC(=O)CC[C@H](NC(=O)CC[C@H](NC(=O)CC[C@H](NC(=O)CC[C@H](NC(=O)CC[C@H](NC(=O)CC[C@H](NC(=O)CCCCCCCCCCCCCCCCC(=O)O)C(=O)O)C(=O)O)C(=O)O)C(=O)O)C(=O)O)C(=O)O)C(=O)NC(C)(C)C(=O)N[C@H](C(=O)N[C@@H](CCCNC(=N)N)C(=O)N[C@@H](CCC(N)=O)C(=O)N[C@@H](CCCNC(=N)N)C(=O)N[C@@H](Cc1ccc(O)cc1)C(N)=O)[C@@H](C)O [Compound 85, Y-Aib-E-G-A-F-T-S-D-Y-S-I-Aib-L-E-K-Q-A-Q-Aib-A-F-V-R-H-L-I-N-K(1,3)-Aib-T-R-Q-R-Y-NH2.C18DA-gGlu-gGlu-gGlu-gGlu-gGlu-gGlu-eLys(1,2)]
4 | – | 5.8 | – | 9000 | 41.3 | – | CC[C@H](C)[C@H](NC(=O)[C@H](CC(C)C)NC(=O)[C@H](Cc1c[nH]cn1)NC(=O)[C@H](CCCNC(=N)N)NC(=O)[C@H](CC(C)C)NC(=O)[C@H](Cc1ccccc1)NC(=O)[C@H](C)NC(=O)C(C)(C)NC(=O)[C@H](CCC(N)=O)NC(=O)[C@H](C)NC(=O)[C@H](CCC(N)=O)NC(=O)[C@H](CCCCN)NC(=O)[C@H](CCC(=O)O)NC(=O)[C@H](CC(C)C)NC(=O)C(C)(C)NC(=O)[C@@H](NC(=O)[C@H](CO)NC(=O)[C@H](Cc1ccc(O)cc1)NC(=O)[C@H](CC(=O)O)NC(=O)[C@H](CO)NC(=O)[C@@H](NC(=O)[C@H](Cc1ccccc1)NC(=O)[C@@H](NC(=O)CNC(=O)[C@H](CCC(=O)O)NC(=O)C(C)(C)NC(=O)[C@@H](N)Cc1ccc(O)cc1)[C@@H](C)O)[C@@H](C)O)[C@@H](C)CC)C(=O)N[C@@H](CC(N)=O)C(=O)N[C@@H](CCCCNC(=O)[C@@H](N)CCCCNC(=O)CC[C@H](NC(=O)CC[C@H](NC(=O)CC[C@H](NC(=O)CC[C@H](NC(=O)CC[C@H](NC(=O)CC[C@H](NC(=O)CCCCCCCCCCCCCCCCC(=O)O)C(=O)O)C(=O)O)C(=O)O)C(=O)O)C(=O)O)C(=O)O)C(=O)NC(C)(C)C(=O)N[C@H](C(=O)N[C@@H](CCCNC(=N)N)C(=O)N[C@@H](CCC(N)=O)C(=O)N[C@@H](CCCNC(=N)N)C(=O)N[C@@H](Cc1ccc(O)cc1)C(N)=O)[C@@H](C)O [Compound 37, Y-Aib-E-G-T-F-T-S-D-Y-S-I-Aib-L-E-K-Q-A-Q-Aib-A-F-L-R-H-L-I-N-K(1,3)-Aib-T-R-Q-R-Y-NH2.C18DA-gGlu-gGlu-gGlu-gGlu-gGlu-gGlu-eLys(1,2)]

From patent US20250382344A1, “Soluble GLP1/GIP/NPY2 Receptor Triple Agonists” (Boehringer Ingelheim International GmH, priority 2024, published 2025)
